# Read-outs that look alike come from different tables or passages of the source.
# Columns and labels:
# androgen receptor (AR) [1] = target: T1, androgen receptor (AR) (Homo sapiens, UniProt P10275); experiment: Keratinocyte AR Reporter Gene Assay, 24 and 72 hours continuous exposure (Example 12); assay type: cell-based; conditions: keratinocytes
# T1 construct: human keratinocytes transfected with an AR luciferase reporter gene; endogenous in cells; host or cells: normal human adult primary epidermal keratinocytes (ATCC PCS-200-011)
# T1 sequence (P10275 1-920): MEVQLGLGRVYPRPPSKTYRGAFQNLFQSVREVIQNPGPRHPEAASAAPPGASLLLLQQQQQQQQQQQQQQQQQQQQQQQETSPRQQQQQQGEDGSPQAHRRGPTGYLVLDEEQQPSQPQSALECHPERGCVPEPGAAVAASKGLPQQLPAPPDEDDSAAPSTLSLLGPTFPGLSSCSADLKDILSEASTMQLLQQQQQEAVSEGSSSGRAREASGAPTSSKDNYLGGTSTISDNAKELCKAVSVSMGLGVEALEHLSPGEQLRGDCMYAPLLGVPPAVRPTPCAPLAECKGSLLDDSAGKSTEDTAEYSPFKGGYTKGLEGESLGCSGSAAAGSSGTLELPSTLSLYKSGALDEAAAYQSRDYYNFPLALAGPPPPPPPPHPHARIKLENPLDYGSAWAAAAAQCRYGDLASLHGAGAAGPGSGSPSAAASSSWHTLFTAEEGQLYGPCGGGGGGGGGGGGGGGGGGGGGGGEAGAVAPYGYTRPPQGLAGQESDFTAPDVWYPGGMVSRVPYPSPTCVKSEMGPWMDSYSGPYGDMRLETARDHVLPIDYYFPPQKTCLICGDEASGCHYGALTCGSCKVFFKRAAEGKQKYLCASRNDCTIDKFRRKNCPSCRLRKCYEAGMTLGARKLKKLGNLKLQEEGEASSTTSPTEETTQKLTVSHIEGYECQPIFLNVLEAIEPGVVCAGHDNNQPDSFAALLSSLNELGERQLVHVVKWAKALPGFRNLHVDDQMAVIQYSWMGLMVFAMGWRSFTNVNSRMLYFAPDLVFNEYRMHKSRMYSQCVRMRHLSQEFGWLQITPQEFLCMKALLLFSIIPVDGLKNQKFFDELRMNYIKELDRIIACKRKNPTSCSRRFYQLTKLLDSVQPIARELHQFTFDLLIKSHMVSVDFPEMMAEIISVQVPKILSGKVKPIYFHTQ
# Procedure: (§1) To assess ARE-mediated inhibition, an AR luciferase assay was performed. After washing cells with 1×PBS, 20 μL lysis buffer (25 mM Tris/phosphate, 4 mM EGTA, 1% Triton, 10% glycerol, 2 mM DTT) was added per well, incubated for 5 minutes with gentle shaking and store at −80° C. On the day of assay, the plates were thawed to ambient temperature and 80 μL of assay buffer (25 mM glycylglycine, 15 mM MgCl2. 5 mM ATP, 0.1 mg/ml BSA) was added to each well. Plates are then processed on a microplate reader (POLARstar Omega) by injecting 100 μL of 1 mM D-luciferin per well, followed by chemiluminescence measurement of 3 seconds at onset of injection. Luciferase activity was determined, measured, and normalized to Relative Light Units (RLU). AR reporter gene activity reduction values were calculated as follows: AR reporter gene activity=1−(average signal (treatment group)/average signal (treatment group without drug).
# This example illustrates how to determine the inhibitory activity of an ARE disclosed herein using a cell-based androgen receptor transcriptional reporter assay using primary human keratinocytes.
# Results were analyzed for IC50 and IC90 values in GraphPad Prism using a four-parameter logistic curve equation. Bottom constraints were set to 1 (level of uninduced control).
# androgen receptor (AR) [2] = target: T1, androgen receptor (AR); experiment: Keratinocyte AR luciferase reporter gene assay (Example 10); assay type: cell-based; conditions: 24 h, read-out: Gene Activity Reduction
# Procedure: (§2) Each ARE tested was prepared in DMSO. […] Ethanol concentrations in media never exceeded 0.1%.
# as §1
# [3] = test system: normal Human Adult Primary Epidermal Keratinocyte cell line; conditions: 72 h
# Procedure: (§3) For the Keratinocyte assay, normal Human Adult Primary Epidermal Keratinocyte cell line (ATCC PCS-200-011) was maintained in EPIUFE® Medium, with 60 μM calcium (Thermo MEPISOOCA) supplemented with Human Keratinocyte Growth Supplement, 100 U/mL penicillin, and 100 μg/mL streptomycin at 37° C. with 5% C02. For experiments, cells were seeded at 70% confluence per well in 100 μL of medium in 96-well plates. Reverse transfection was done on the cells using Lipofectamine 3000 (Life Technologies) with plasmids according to manufacturer's instructions. Briefly, 0.3 μL transfection reagent per 100 ng DNA were incubated with P3000 reagent and Opti-Mem prior to addition of cells. After 16 hours, medium was removed and replaced with dosing medium.
# (§4) Each ARE tested was prepared in DMSO. Dosing medium was prepared at the time of treatment by serial diluting stock solution into medium. Ethanol concentrations in media never exceeded 0.1%. […] Negative control wells contained 100 L medium/well with 1 μL of ethanol/mL of medium and an appropriate amount of DMSO. […] Cells were incubated 72 hours at 37° C. without CO2.
# androgen receptor (AR) [4] = target: androgen receptor (AR) (Homo sapiens, UniProt P10275); experiment: MDA-kb2 AR luciferase reporter gene assay (1.0 nM DHT); assay type: cell-based; conditions: MDA-kb2, 24 h, read-out: Gene Activity Reduction
# Procedure: This example illustrates how to determine the inhibitory activity of an ARE disclosed herein using a cell-based androgen receptor transcriptional reporter assay using an engineered cell line.
# as §2, §1
# [5] = test system: MDA-kb2 breast cancer cell; experiment: MDA-kb2 cell viability in Example 13; assay type: cell-based
# human keratinocytes = experiment: Keratinocyte cell viability / cytotoxicity in Example 12; assay type: cell-based; conditions: extended treatment
# in vitro = conditions: human
# Procedure: as §3, §4
# [6] = test system: MDA-kb2 mammary gland breast cancer cell line; conditions: human, 24 h
# Procedure: For the MDA-kb2 assay, MDA-kb2 mammary gland breast cancer cell line was maintained in L-15 media (Gibco) supplemented with 10% FBS, 100 U/mL penicillin, 100 μg/mL streptomycin, and 0.25 μg/mL amphotericin B at 37° C., without CO2. For experiments, cells were plated at 1.0×10^4 cells (50% confluence) per well in 100 μL of medium in 96-well plates. When cells were attached (after 6 hours), medium was removed and replaced with dosing medium containing 10% charcoal stripped FBS.
# A 5α-Androstan-17β-ol-3-one (DHT) stock solution was prepared at 1,000× in ethanol. Each ARE tested was prepared in DMSO. Dosing medium was prepared at the time of treatment by serial diluting stock solution into medium. Ethanol concentrations in media never exceeded 0.1%. […] Negative control wells contained 100 μL medium/well with 1 μL of ethanol/mL of medium and an appropriate amount of DMSO. Each plate also contained 1.0 nM DHT with an ARE or without an ARE as a positive control. Cells were incubated 24 hours at 37° C. without CO2.
# To assess for cell viability, cells were first visually examined under a phase-contrast microscope to record cell confluence, morphological changes, and presence of drug crystallization as well as to observe signs of cytotoxity such as, e.g., detachment, vacuolization, membrane degradation, or lack of phase brightness. After microscopic inspection, a Trypan Blue exclusion assay was performed to assess cell viability and cell number for each well. Each well was washed with 0.5 mL volume of PBS. 30 µL of Trypan Blue was added to each well for 5-10 minutes. Total cell number and total viable cell number will be counted from 1 number of fields per well, in triplicate.
# androgen receptor (AR) [7] = target: T1, androgen receptor (AR); experiment: Keratinocyte AR Reporter Gene Assay with washout (sustained effects); assay type: cell-based; conditions: 7.0 μM for 24 hours
# Procedure: Reporter gene activity was measured following two days or three days of additional cell culture in the absence of AR antagonists. AR reporter gene activity reduction was calculated as follows: 1−(average signal (treatment group)/(average signal (treatment group, without drug, same washout period).
smiles,measurement,setting,value
CC12CCC(=O)C=C1C[C@@H](SC(=O)CC13CC4CC(CC(C4)C1)C3)C1C2CCC2(C)C1CC[C@@]21CCC(=O)O1 (stereo partly shown) [SPG-003],IC50,androgen receptor (AR) [1]; 24-hr Treatment,3.68 µM
same,IC90,androgen receptor (AR) [1]; 24-hr Treatment,6.96 µM
same,Maximum Inhibition,androgen receptor (AR) [1]; 24-hr Treatment,91%
same,IC50,androgen receptor (AR) [1]; 24-hr treatment,3.7 µM
same,IC90,androgen receptor (AR) [1]; 24-hr treatment,7 µM
same,IC50,androgen receptor (AR) [1]; 72-hour treatment,2.5 µM
same,IC90,androgen receptor (AR) [1]; 72-hour treatment,5.7 µM
same,IC50,androgen receptor (AR) [1]; 72-hr Treatment,2.57 µM
same,IC90,androgen receptor (AR) [1]; 72-hr Treatment,5.68 µM
same,Maximum Inhibition,androgen receptor (AR) [1]; 72-hr Treatment,93%
same,inhibition of AR reporter gene activity (in words),androgen receptor (AR) [1]; 24 and 72 hours,dose-dependent inhibition
same,inhibition at 0.1 µM,androgen receptor (AR) [2],21%
same,inhibition at 1 µM,androgen receptor (AR) [2],31%
same,inhibition at 3 µM,androgen receptor (AR) [2],50%
same,inhibition at 10 µM,androgen receptor (AR) [2],93%
same,Cell Viability,[3]; 0.62 μM,92.16 ± 1.30
same,Cell Viability,[3]; 1.85 μM,73.46 ± 1.11
same,Cell Viability,[3]; 5.56 μM,66.12 ± 3.09
same,Cell Viability,[3]; 16.67 μM,55.11 ± 0.16
same,Cell Viability,[3]; 50 μM,38.67 ± 2.25
same,inhibition at 0.1 µM,androgen receptor (AR) [4],8%
same,inhibition at 1 µM,androgen receptor (AR) [4],20%
same,inhibition at 3 µM,androgen receptor (AR) [4],40%
same,inhibition at 10 µM,androgen receptor (AR) [4],90%
same,Cell Viability,"[5]; MDA-kb2, 6 μM",80%
same,Cell Viability,"[5]; MDA-kb2, 10 μM",50%
same,cell cytotoxicity (in words),human keratinocytes,minimal
same,IC50 at 72 h,in vitro,~50 µM
same,Cell Viability,[6]; 0.1 μM,98%
same,Cell Viability,[6]; 1 μM,99%
same,Cell Viability,[6]; 3 μM,98%
same,Cell Viability,[6]; 10 μM,98%
same,AR reporter gene activity reduction,androgen receptor (AR) [7]; Washout Period 0 days,89 ± 1.0%
same,AR reporter gene activity reduction,androgen receptor (AR) [7]; Washout Period 2 days,64 ± 0.3%
